Laboratory results from patent US11007136B2, “Cosmetic composition for wrinkle reduction containing gypenoside isolated from Gynostemma pentaphyllum” (CELLTRION INC., priority 2015, dated 2021).

Key:
[1] = Titer stability of UL4 and UL5 within formulations (HPLC); format: physicochemical; settings: for content stability Result: over 12 weeks
Experimental: As shown in Formulation Examples 1, 2 and 3, cosmetic compositions of a high viscosity emulsified formulation, a low viscosity emulsified formulation and a solubilized formulation, respectively comprising 0.2% of the Gynostemma pentaphyllum gypenoside fraction, were stored under a condition of 4 CC, 30 CC, 45° C. and sunlight for 12 weeks and changes with passage of time (% compared to an initial content) in the gypenosides UL4 and UL5, which were index ingredients for quantification out of the Gynostemma pentaphyllum gypenoside ingredients, were observed through an HPLC analysis, and results thereof were indicated in Tables 10 to 12.

[2] = test system: human dermal fibroblast neonatal; experiment: Cytotoxicity test (MTT); format: cell-based; settings: for HDFn Viability: 48 h, % control
Experimental: A human dermal fibroblast neonatal (Cascade Co.) was inoculated into a 24-well microplate (5×10^4 cells/well) by using a medium, in which Dulbeco's Modified Eagle's Medium (DMEM) was supplemented with 10% fetal bovine serum, thus being cultured under a condition of 37° C. and 5% CO2 for 24 hours. Then, the same was replaced with a serum-free DMEM medium and cultured for 24 hours, thus treating the Gynostemma pentaphyllum gypenoside fraction obtained from the Example 1 and the gypenosides UL4 and UL5 isolated therefrom, respectively. After being cultured for 48 hours, an MTT solution was added thereto, thus being cultured for four hours. The medium was removed therefrom and DMSO was added thereto, thus dissolving an MTT formazan. The MTT formazan dissolved in the DMSO was taken out and an optical density thereof was measured at 570 nm, thus being compared to a group without sample treatment and indicated as % control.

[3] = test system: human dermal fibroblast neonatal; experiment: Procollagen production (collagen synthesis promotion), ELISA kit; format: cell-based; settings: 1 and 5 μg/ml, 48 h, versus positive control NAG at the same concentration, FIG. 3
Experimental: A human dermal fibroblast neonatal (Cascade Co.) was inoculated into a 24-well microplate (5×10^4 cells/well) by using a medium, in which Dulbeco's Modified Eagle's Medium (DMEM) was supplemented with 10% fetal bovine serum, thus being cultured under a condition of 37° C. and 5% CO2 for 24 hours. Then, the same was replaced with a serum-free DMEM medium and cultured for 24 hours, after which an appropriate amount of a sample fluid was treated so that a final concentration of each test compound could reach 1 μg/ml and 5 μg/ml. After being cultured for 48 hours, a cell culture fluid was collected and then an amount of procollagen was measured by using a collagen measurement kit of Takara Company (Takara Shuzo Co., Ltd.). First of all, the collected cell culture fluid was injected into a 96-well microplate, to which a primary collagen antibody was evenly applied, such that an antigen-antibody reaction could occur at 37° C. for three hours. The cell culture fluid was removed from the well and washed four times with PBS. A color causing material was injected into each well, after which a reaction took place at a room temperature for 15 minutes, such that 1 N sulfuric acid solution was added thereto, thus stopping the reaction. An optical density was measured at a wavelength of 450 nm by means of a spectrophotometer. […]

With `CC(C)=CC1C[C@](O)([C@H]2CC[C@]3(C)[C@@H]2CC[C@@H]2[C@@]4(C=O)CC[C@H](O[C@@H]5OC[C@H](O)[C@H](O[C@@H]6O[C@H](CO)[C@@H](O)[C@H](O)[C@H]6O)[C@H]5O[C@@H]5O[C@@H](C)[C@H](O)[C@@H](O)[C@H]5O)C(C)(C)[C@@H]4CC[C@]23C)[C@H](O)O1` (stereo partly drawn) [Gypenoside UL5, (23ξ)-3β,20β,21α-trihydroxy-19-oxo-21,23-epoxy-dammar-24-ene-3-O-[α-L-rhamnopyranosyl (1→2)][β-D-glucopyranosyl (1→3)]-α-L-arabinopyranoside] as the molecule, how does the “content, % compared to an initial content” value (“content, %” for short) ([1]; High viscosity emulsified formulation, 4° C., 1 week) read?
The value was 100.6%.

And the “content, %” value ([1]; High viscosity emulsified formulation, 4° C., 2 weeks)?
Its value is 95.1%.

What about the “content, %” value ([1]; High viscosity emulsified formulation, 4° C., 4 weeks) of the same molecule?
Its value is 104.4%.

And the “content, %” value ([1]; High viscosity emulsified formulation, 4° C., 8 weeks)?
Its value is 104.2%.

What about the “content, %” value ([1]; High viscosity emulsified formulation, 4° C., 12 weeks) of the same molecule?
Its value is 106.9%.

And the “content stability Result” value ([1]; High viscosity emulsified formulation, 4° C.)?
Its value is “Stable”.

What about the “content, %” value ([1]; High viscosity emulsified formulation, 30° C., 1 week) of the same molecule?
The value was 103.8%.

What about the “content, %” value ([1]; High viscosity emulsified formulation, 30° C., 2 weeks) of the same molecule?
The value was 105.7%.

And the “content, %” value ([1]; High viscosity emulsified formulation, 30° C., 4 weeks)?
The value was 108.2%.

And the “content, %” value ([1]; High viscosity emulsified formulation, 30° C., 8 weeks)?
The value was 103.4%.

And the “content, %” value ([1]; High viscosity emulsified formulation, 30° C., 12 weeks)?
The value was 104.1%.

What about the “content stability Result” value ([1]; High viscosity emulsified formulation, 30° C.) of the same molecule?
The value was “Stable”.

What about the “content, %” value ([1]; High viscosity emulsified formulation, 45° C., 1 week) of the same molecule?
Its value is 102.6%.

And the “content, %” value ([1]; High viscosity emulsified formulation, 45° C., 2 weeks)?
Its value is 104.6%.

And the “content, %” value ([1]; High viscosity emulsified formulation, 45° C., 4 weeks)?
Its value is 102.1%.

And the “content, %” value ([1]; High viscosity emulsified formulation, 45° C., 8 weeks)?
The value was 101.8%.

What about the “content, %” value ([1]; High viscosity emulsified formulation, 45° C., 12 weeks) of the same molecule?
Its value is 103.1%.

And the “content stability Result” value ([1]; High viscosity emulsified formulation, 45° C.)?
Its value is “Stable”.

And the “content, %” value ([1]; High viscosity emulsified formulation, Sunlight, 1 week)?
The value was 101.8%.

And the “content, %” value ([1]; High viscosity emulsified formulation, Sunlight, 2 weeks)?
The value was 99.2%.

And the “content, %” value ([1]; High viscosity emulsified formulation, Sunlight, 4 weeks)?
Its value is 103%.

What about the “content, %” value ([1]; High viscosity emulsified formulation, Sunlight, 8 weeks) of the same molecule?
The value was 101.1%.

And the “content, %” value ([1]; High viscosity emulsified formulation, Sunlight, 12 weeks)?
The value was 104.9%.

And the “content stability Result” value ([1]; High viscosity emulsified formulation, Sunlight)?
Its value is “Stable”.

And the “content, %” value ([1]; Low viscosity emulsified formulation, 4° C., 1 week)?
The value was 98.8%.

And the “content, %” value ([1]; Low viscosity emulsified formulation, 4° C., 2 weeks)?
Its value is 100.4%.

And the “content, %” value ([1]; Low viscosity emulsified formulation, 4° C., 4 weeks)?
Its value is 102.8%.

What about the “content, %” value ([1]; Low viscosity emulsified formulation, 4° C., 8 weeks) of the same molecule?
Its value is 100.2%.

What about the “content, %” value ([1]; Low viscosity emulsified formulation, 4° C., 12 weeks) of the same molecule?
The value was 95.2%.

What about the “content stability Result” value ([1]; Low viscosity emulsified formulation, 4° C.) of the same molecule?
The value was “Stable”.

What about the “content, %” value ([1]; Low viscosity emulsified formulation, 30° C., 1 week) of the same molecule?
Its value is 103.3%.

What about the “content, %” value ([1]; Low viscosity emulsified formulation, 30° C., 2 weeks) of the same molecule?
Its value is 103.9%.

And the “content, %” value ([1]; Low viscosity emulsified formulation, 30° C., 4 weeks)?
The value was 102.2%.

What about the “content, %” value ([1]; Low viscosity emulsified formulation, 30° C., 8 weeks) of the same molecule?
Its value is 105.6%.

And the “content, %” value ([1]; Low viscosity emulsified formulation, 30° C., 12 weeks)?
The value was 105%.

And the “content stability Result” value ([1]; Low viscosity emulsified formulation, 30° C.)?
Its value is “Stable”.

And the “content, %” value ([1]; Low viscosity emulsified formulation, 45° C., 1 week)?
The value was 103.5%.

And the “content, %” value ([1]; Low viscosity emulsified formulation, 45° C., 2 weeks)?
Its value is 102%.

What about the “content, %” value ([1]; Low viscosity emulsified formulation, 45° C., 4 weeks) of the same molecule?
The value was 104.8%.

And the “content, %” value ([1]; Low viscosity emulsified formulation, 45° C., 8 weeks)?
The value was 94.2%.

What about the “content, %” value ([1]; Low viscosity emulsified formulation, 45° C., 12 weeks) of the same molecule?
The value was 98.3%.

And the “content stability Result” value ([1]; Low viscosity emulsified formulation, 45° C.)?
Its value is “Stable”.

And the “content, %” value ([1]; Low viscosity emulsified formulation, Sunlight, 1 week)?
The value was 94.4%.

And the “content, %” value ([1]; Low viscosity emulsified formulation, Sunlight, 2 weeks)?
The value was 98.1%.

What about the “content, %” value ([1]; Low viscosity emulsified formulation, Sunlight, 4 weeks) of the same molecule?
The value was 101.6%.

And the “content, %” value ([1]; Low viscosity emulsified formulation, Sunlight, 8 weeks)?
The value was 101%.

And the “content, %” value ([1]; Low viscosity emulsified formulation, Sunlight, 12 weeks)?
Its value is 102.6%.

What about the “content stability Result” value ([1]; Low viscosity emulsified formulation, Sunlight) of the same molecule?
The value was “Stable”.

What about the “content, %” value ([1]; Solubilized formulation, 4° C., 1 week) of the same molecule?
Its value is 98.8%.

And the “content, %” value ([1]; Solubilized formulation, 4° C., 2 weeks)?
Its value is 95.7%.

And the “content, %” value ([1]; Solubilized formulation, 4° C., 4 weeks)?
The value was 105.1%.

What about the “content, %” value ([1]; Solubilized formulation, 4° C., 8 weeks) of the same molecule?
Its value is 102.8%.

What about the “content, %” value ([1]; Solubilized formulation, 4° C., 12 weeks) of the same molecule?
The value was 102.3%.

What about the “content stability Result” value ([1]; Solubilized formulation, 4° C.) of the same molecule?
The value was “Stable”.

What about the “content, %” value ([1]; Solubilized formulation, 30° C., 1 week) of the same molecule?
Its value is 100%.

And the “content, %” value ([1]; Solubilized formulation, 30° C., 2 weeks)?
The value was 105.1%.

And the “content, %” value ([1]; Solubilized formulation, 30° C., 4 weeks)?
Its value is 108.6%.

And the “content, %” value ([1]; Solubilized formulation, 30° C., 8 weeks)?
The value was 103.7%.

And the “content, %” value ([1]; Solubilized formulation, 30° C., 12 weeks)?
Its value is 104.9%.

What about the “content stability Result” value ([1]; Solubilized formulation, 30° C.) of the same molecule?
Its value is “Stable”.

And the “content, %” value ([1]; Solubilized formulation, 45° C., 1 week)?
Its value is 100.3%.

And the “content, %” value ([1]; Solubilized formulation, 45° C., 2 weeks)?
The value was 101.4%.

And the “content, %” value ([1]; Solubilized formulation, 45° C., 4 weeks)?
Its value is 97.2%.

What about the “content, %” value ([1]; Solubilized formulation, 45° C., 8 weeks) of the same molecule?
Its value is 102.1%.

And the “content, %” value ([1]; Solubilized formulation, 45° C., 12 weeks)?
The value was 95.6%.

What about the “content stability Result” value ([1]; Solubilized formulation, 45° C.) of the same molecule?
The value was “Stable”.

And the “content, %” value ([1]; Solubilized formulation, Sunlight, 1 week)?
The value was 97.9%.

What about the “content, %” value ([1]; Solubilized formulation, Sunlight, 2 weeks) of the same molecule?
Its value is 95.9%.

What about the “content, %” value ([1]; Solubilized formulation, Sunlight, 4 weeks) of the same molecule?
Its value is 104.9%.

And the “content, %” value ([1]; Solubilized formulation, Sunlight, 8 weeks)?
Its value is 103.5%.

And the “content, %” value ([1]; Solubilized formulation, Sunlight, 12 weeks)?
Its value is 103.3%.

What about the “content stability Result” value ([1]; Solubilized formulation, Sunlight) of the same molecule?
Its value is “Stable”.

What about the “HDFn Viability” value ([2]; 5 ug/ml) of the same molecule?
Its value is 100%.

And the “HDFn Viability” value ([2]; 10 ug/ml)?
Its value is 102%.

And the “HDFn Viability” value ([2]; 50 ug/ml)?
Its value is 113%.

And the cytotoxicity ([2]; at concentrations promoting procollagen synthesis)?
The cytotoxicity was “did not show any cytotoxicity”.

And the “procollagen-producing effect compared with NAG” value [3]?
Its value is “the same or larger amount of procollagen”.
